Data reported in ChEMBL document CHEMBL1141287, “Cardenolides from Saussurea stella with cytotoxicity toward cancer cells” (J Nat Prod, 2007).

Key:
[1] = Cytotoxicity against human BCG823 cells after 48 hrs by sulforhodamine B assay; format: functional, cell-based; settings: BCG823, 48 h
Bel-7402 = test: Cytotoxicity against human Bel7402 cells after 48 hrs by sulforhodamine B assay; format: functional, cell-based; settings: Bel-7402, 48 h

Row | Compound | IC50 [1] [nM] | IC50 (Bel-7402) [nM]
1 | C[C@H]1O[C@@H](O[C@H]2CC[C@]3(C)[C@H]4CC[C@]5(C)[C@@H](C6=CC(=O)OC6)CC[C@]5(O)[C@@H]4CC[C@]3(O)C2)[C@H](O)[C@@H](O)[C@H]1O | 120 | 400
2 | C[C@@H]1O[C@@H](O[C@H]2CC[C@@]3(C=O)[C@H](CC[C@@H]4[C@@H]3CC[C@]3(C)[C@@H](C5=CC(=O)OC5)CC[C@]43O)C2)[C@H](O)[C@H](O)[C@H]1O[C@@H]1O[C@H](CO)[C@@H](O)[C@H](O)[C@H]1O | 290 | 870
3 | C[C@@H]1O[C@@H](O[C@H]2CC[C@@]3(CO)[C@H](CC[C@@H]4[C@@H]3CC[C@]3(C)[C@@H](C5=CC(=O)OC5)CC[C@]43O)C2)[C@H](O)[C@H](O)[C@H]1O | 77 | 28
4 | C[C@H]1O[C@@H](O[C@H]2CC[C@]3(C=O)[C@H]4CC[C@]5(C)[C@@H](C6=CC(=O)OC6)CC[C@]5(O)[C@@H]4CC[C@]3(O)C2)[C@H](O)[C@@H](O)[C@@H]1O | 100 | 20
5 | C[C@@H]1O[C@@H](O[C@H]2CC[C@]3(C=O)[C@H]4CC[C@]5(C)[C@@H](C6=CC(=O)OC6)CC[C@]5(O)[C@@H]4CC[C@]3(O)C2)[C@H](O)[C@H](O)[C@H]1O [CONVALLATOXIN] | 16 | 50
6 | C[C@]12CC[C@H]3[C@@H](CC[C@]4(O)C[C@@H](O[C@@H]5OC[C@@H](O)[C@H](O)[C@H]5O)CC[C@]34C=O)[C@@]1(O)CC[C@@H]2C1=CC(=O)OC1 | 16 | 130
7 | C[C@H]1O[C@@H](O[C@H]2CC[C@]3(C)[C@H]4CC[C@]5(C)[C@@H](C6=CC(=O)OC6)CC[C@]5(O)[C@@H]4CC[C@]3(O)C2)[C@H](O)[C@@H](O)[C@@H]1O | 70 | 310
8 | C[C@]12CC[C@H](O[C@@H]3OC[C@@H](O)[C@H](O)[C@H]3O)C[C@@]1(O)CC[C@@H]1[C@@H]2CC[C@]2(C)[C@@H](C3=CC(=O)OC3)CC[C@]12O | 230 | 480
9 | C[C@@H]1O[C@@H](O[C@@H]2C[C@H]3CC[C@@H]4[C@H](CC[C@]5(C)[C@@H](C6=CC(=O)OC6)CC[C@]45O)[C@@]3(C)[C@H](O)C2)[C@H](O)[C@H](O)[C@H]1O | 56 | 240
